Molecular target: Multidrug resistance-associated protein 1 (Homo sapiens, UniProt P33527)
Experiment: TP_TRANSPORTER: growth inhibition in hMRP1-expressing tobacco
Assay type: functional, organism-based, (cultivar) Samsun NN
Conditions: nicotiana tabacum, in vivo

Multidrug resistance-associated protein 1, sequence (P33527 whole entry): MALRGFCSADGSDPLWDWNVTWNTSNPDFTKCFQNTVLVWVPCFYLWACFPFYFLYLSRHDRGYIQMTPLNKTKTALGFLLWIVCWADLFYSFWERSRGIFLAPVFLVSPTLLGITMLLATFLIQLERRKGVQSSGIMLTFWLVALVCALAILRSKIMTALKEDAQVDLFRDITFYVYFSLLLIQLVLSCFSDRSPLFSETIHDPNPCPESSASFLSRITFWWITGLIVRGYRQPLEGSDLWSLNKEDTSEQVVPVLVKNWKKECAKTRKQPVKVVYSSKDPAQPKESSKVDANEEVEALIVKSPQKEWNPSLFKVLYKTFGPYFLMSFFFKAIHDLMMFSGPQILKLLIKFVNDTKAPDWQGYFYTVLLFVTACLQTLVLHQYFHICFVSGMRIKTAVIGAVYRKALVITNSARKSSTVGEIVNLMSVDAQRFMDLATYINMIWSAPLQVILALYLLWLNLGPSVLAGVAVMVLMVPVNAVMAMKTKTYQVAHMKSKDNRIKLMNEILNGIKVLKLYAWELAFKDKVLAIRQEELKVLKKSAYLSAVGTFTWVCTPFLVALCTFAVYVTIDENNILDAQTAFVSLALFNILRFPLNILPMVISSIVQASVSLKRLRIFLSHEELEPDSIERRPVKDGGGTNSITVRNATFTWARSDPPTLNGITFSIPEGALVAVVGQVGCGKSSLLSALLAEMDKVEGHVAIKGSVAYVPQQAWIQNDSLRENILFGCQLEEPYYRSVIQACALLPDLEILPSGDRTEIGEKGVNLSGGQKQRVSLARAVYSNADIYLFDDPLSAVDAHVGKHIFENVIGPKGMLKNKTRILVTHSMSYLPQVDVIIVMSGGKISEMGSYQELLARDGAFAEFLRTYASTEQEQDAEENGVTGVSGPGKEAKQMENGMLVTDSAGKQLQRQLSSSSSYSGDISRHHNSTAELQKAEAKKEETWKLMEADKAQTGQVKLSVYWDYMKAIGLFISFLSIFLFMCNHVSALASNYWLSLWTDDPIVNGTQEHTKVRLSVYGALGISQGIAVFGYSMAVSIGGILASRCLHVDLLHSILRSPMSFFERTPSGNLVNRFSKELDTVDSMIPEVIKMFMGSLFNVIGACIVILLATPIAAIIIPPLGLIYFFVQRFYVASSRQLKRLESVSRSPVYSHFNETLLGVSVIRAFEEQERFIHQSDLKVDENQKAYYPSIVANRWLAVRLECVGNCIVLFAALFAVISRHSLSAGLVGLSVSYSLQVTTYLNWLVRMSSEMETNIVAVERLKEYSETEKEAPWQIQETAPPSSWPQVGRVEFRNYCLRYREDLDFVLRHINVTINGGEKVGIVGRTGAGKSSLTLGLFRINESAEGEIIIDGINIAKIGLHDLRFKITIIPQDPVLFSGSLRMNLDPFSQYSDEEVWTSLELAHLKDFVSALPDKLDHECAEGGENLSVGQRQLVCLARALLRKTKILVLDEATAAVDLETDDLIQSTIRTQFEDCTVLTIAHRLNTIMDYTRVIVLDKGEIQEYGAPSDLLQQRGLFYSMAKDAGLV

CADMIUM
Activity: substrate []

— ChEMBL document CHEMBL2073829, “Heterologous expression of a mammalian ABC transporter in plant and its application to phytoremediation” (Plant Mol Biol, 2006)
